The test system of this experiment is ornithine decarboxylase (ODC). The experiment can be described thus: Ornithine decarboxylase (ODC) assay: inhibition of TPA induction of ODC activity. Format: cell-based. From the text:
A classic measure of retinoic acid activity involves measuring the effects of refinoic acid on ornithine decarboxylase (ODC). The original work on the correlation between retinoic acid and decrease in cell proliferation was done by Verma & Boutwell, Cancer Research, 1977,37, 2196-2201. That reference discloses that ornithine decarboxylase activity increased precedent to polyamine biosynthesis. It has been established elsewhere that increases in polyamine synthesis can be correlated or associated with cellular proliferation. Thus, if ODC activity could be inhibited, cell hyperproliferation could be modulated. Although all cases for ODC activity increases are unknown, it is known that 12-O-tetradecanoylphorbol-13-acetate (TPA) induces ODC activity. Retinoic acid inhibits this induction of ODC activity by TPA. […] “IC60” is that concentration of the test compound which causes 60% inhibition in the ODC assay. By analogy, “IC80”, for example, is that concentration of the test compound which causes 80% inhibition in the ODC assay.

The structures appear in SMILES notation.

Regarding `CCOC(=O)c1ccc(C#C/C=C/C2=C(O[Si](C)(C)C)CCCC2(C)C)cc1` [Compound 1, Ethyl (±)-(E)-4-(4-(6,6-dimethyl-2-(trimethylsily)oxycyclohex-1-enyl)but-3-en-1-yn-yl)benzoate], the IC80 (footnote 1: IC80, read-out: IC80 (concentration of the test compound which causes 80% inhibition in the ODC assay)) amounted to 0.46 nM.

For the compound `CCOC(=O)c1ccc(C#C/C=C/C2=C(C(=O)OC)CCCC2(C)C)cc1` [Compound 6, Ethyl (E)-4-(4-(6-Carbomethoxy-2,2-dimethylcyclohex-1-enyl)but-3-en-1-yn-yl)benzoate], for the setting “footnote 2: IC60”, the “IC60 (concentration of the test compound which causes 60% inhibition in the ODC assay)” value is reported as 0.3^2 nanomolar.

Values taken from US6465646B1, “1-alkoxy and 1-acyloxy substituted cyclohex-1-ene compounds and sulfur and 1-alkoxycarbonyl analogs having retinoid-like biological activity” (Allergan, Inc., priority 1999, dated 2002).
